A short description of this series: Melting of Form A0 in dry N2 (heated to 140° C., cooled to room temperature). The following applies: heated to 140° C. in dry N2 atmosphere, then cooled to room temperature and crushed. Format: physicochemical. As to the method:
A. The amorphous form of funapide was generated by melting Form A0 of funapide in a dry N2 atmosphere optionally using the VT stage on the XRPD unit. The sample was heated to 140° C. and then cooled to room temperature and crushed. […] The sample was confirmed to be the amorphous form of funapide by XRPD.

As for `O=C1N(Cc2ccc(C(F)(F)F)o2)c2ccccc2[C@]12COc1cc3c(cc12)OCO3` [Form A0 of funapide], the decomposition on melting entry is “No decomposition was observed”.

(Values after patent publication US10513526B2, “Solid state forms of spiro-oxindole compounds” (Xenon Pharmaceuticals Inc., priority 2016, dated 2019).)
